PMC4775997, “Imidazopyridazine Inhibitors of Plasmodium falciparum Calcium-Dependent Protein Kinase 1 Also Target Cyclic GMP-Dependent Protein Kinase and Heat Shock Protein 90 To Kill the Parasite at Different Stages of Intracellular Development” (Antimicrobial Agents and Chemotherapy, 2016)
Where two headings read alike, the source gives them in different places.

Legend:
P. falciparum 3D7 [1] = test: SYBR green I growth assay, wild-type parasites; type: cell-based, Plasmodium falciparum; conditions: for EC5048/EC5096 ratio: Table 1
CDPK1 = CDPK1 (Plasmodium falciparum, UniProt P62344); test: biochemical; type: biochemical; conditions: read-out: Enzyme inhibition IC50, CDPK1
Chain of CDPK1 (P62344 whole entry): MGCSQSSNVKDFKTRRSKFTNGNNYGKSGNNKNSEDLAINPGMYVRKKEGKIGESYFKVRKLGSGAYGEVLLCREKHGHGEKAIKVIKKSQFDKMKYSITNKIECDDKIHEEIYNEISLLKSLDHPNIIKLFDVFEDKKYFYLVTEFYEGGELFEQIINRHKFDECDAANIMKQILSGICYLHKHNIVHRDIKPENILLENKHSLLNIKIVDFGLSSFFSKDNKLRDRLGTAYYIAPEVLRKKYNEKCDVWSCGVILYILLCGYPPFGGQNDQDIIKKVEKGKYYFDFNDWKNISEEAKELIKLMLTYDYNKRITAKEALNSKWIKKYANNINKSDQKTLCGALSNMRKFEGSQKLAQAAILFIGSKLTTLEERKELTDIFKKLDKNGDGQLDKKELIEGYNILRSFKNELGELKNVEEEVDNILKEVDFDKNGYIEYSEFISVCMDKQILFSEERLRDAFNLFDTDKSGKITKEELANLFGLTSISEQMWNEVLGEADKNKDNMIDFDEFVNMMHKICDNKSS

PfPKG = target: T1, PfPKG (Plasmodium falciparum, UniProt Q8I719); test: Microfluidic fluorescent shift assay of cGMP-dependent protein kinase activity; type: biochemical
T1 construct: plasmids (pTrcHisC) encoding full-length PfPKG and PfPKG T618Q with N-terminal His tags; His tag (N); made in house; host or cells: E. coli Rosetta2(DE3)

PfPKG T618Q = target: T2, PfPKG T618Q (Plasmodium falciparum, UniProt Q8I719, T618Q); test: biochemical; type: biochemical
T2 construct: plasmids (pTrcHisC) encoding full-length PfPKG and PfPKG T618Q with N-terminal His tags; His tag (N); made in house; host or cells: E. coli Rosetta2(DE3)
T2 sequence (Q8I719 whole entry T618Q): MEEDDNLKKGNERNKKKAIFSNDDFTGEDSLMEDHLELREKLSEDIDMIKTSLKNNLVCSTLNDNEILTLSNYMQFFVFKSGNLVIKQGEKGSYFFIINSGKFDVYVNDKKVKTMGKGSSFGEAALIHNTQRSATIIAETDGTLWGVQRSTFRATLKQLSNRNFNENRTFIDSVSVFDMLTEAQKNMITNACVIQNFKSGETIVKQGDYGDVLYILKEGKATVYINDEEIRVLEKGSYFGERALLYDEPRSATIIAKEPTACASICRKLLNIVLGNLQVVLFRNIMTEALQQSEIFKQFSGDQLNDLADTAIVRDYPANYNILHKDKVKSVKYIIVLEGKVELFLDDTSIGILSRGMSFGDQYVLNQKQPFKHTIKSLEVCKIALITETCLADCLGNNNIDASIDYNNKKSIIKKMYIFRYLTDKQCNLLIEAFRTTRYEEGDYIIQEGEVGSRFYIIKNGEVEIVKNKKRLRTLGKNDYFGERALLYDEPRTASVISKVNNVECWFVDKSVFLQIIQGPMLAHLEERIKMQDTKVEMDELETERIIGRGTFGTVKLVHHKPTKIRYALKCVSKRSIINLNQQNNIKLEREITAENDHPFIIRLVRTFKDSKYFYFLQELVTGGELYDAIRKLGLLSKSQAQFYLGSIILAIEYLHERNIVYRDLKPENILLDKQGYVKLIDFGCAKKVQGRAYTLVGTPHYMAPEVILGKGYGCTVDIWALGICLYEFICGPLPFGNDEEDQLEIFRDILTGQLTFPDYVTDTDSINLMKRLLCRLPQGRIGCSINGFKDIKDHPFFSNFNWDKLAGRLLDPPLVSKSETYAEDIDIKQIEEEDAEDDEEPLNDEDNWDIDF

P. falciparum 3D7 [2] = test: Microscopic examination of Giemsa-stained smears (stage of action); conditions: for Stage of action (before or after DNA synthesis): Table S1, ring-stage parasites, 10x EC50 for 48 h; for Stage of action: ring stage parasites treated with 10 times the 96-h EC50 for 48 h
3D7 PKG T618Q = test: microbe, parasite or virus in culture; type: cell-based, Plasmodium falciparum; conditions: for EC50: read-out: Parasite inhibition EC50, 3D7 PKG T618Q; for Ratio 3D7 PKG T618Q/3D7: Table S2
3D7 CDPK1 T145T-HA = test: SYBR green assay, 3D7 CDPK1 T145T-HA line; type: cell-based; conditions: Plasmodium falciparum, 3D7, read-out: EC50, 3D7 CDPK1 T145T-HA
Method: (§1) Aliquots of 100 μl of P. falciparum cultures 24 h after erythrocyte invasion were transferred into 96-well culture dishes. Cells were incubated with inhibitors for 48 or 96 h (starting parasitemias were 0.3% and 0.03%, respectively). All drug treatments were carried out in duplicate at a final dimethyl sulfoxide (DMSO) concentration of 0.05%. After incubation, a modification of a previously described SYBR green assay was performed ([27]). Cells were lysed by the addition of 25 μl of buffer (20 mM Tris-HCl, pH 8.0, 2 mM EDTA, pH 8.0, 1.6% Triton X-100, 0.16% saponin, 10× SYBR green I [Life Technologies]). After incubation in the dark for 2 h, fluorescence of the samples was determined using a FLUOStar Omega plate reader (BMG Labtech) with excitation and emission filters of 485 nm and 520 nm, respectively. EC50s were calculated from a four-parameter logistical fit of the data using Prism software (GraphPad Software, Inc.).
(§2) Parasites expressing CDPK1 T145G and CDPK1 T145T were generated as described previously ([28]). Briefly, a region of homology to facilitate integration of the plasmid via single-crossover homologous recombination was amplified from P. falciparum 3D7 genomic DNA at 194 bp upstream of the ATG to bp 435 of the open reading frame using primers 1 and 2 for the wild-type (WT) version and primers 1 and 3 for the glycine version. […]

3D7 CDPK1 T145G-HA = test: SYBR green assay, 3D7 CDPK1 T145G-HA line; type: cell-based; conditions: Plasmodium falciparum, 3D7, read-out: EC50, 3D7 CDPK1 T145G-HA
Method: as §1, §2

[3] = SYBR green I, 48 h incubation, mean of three independent experiments (SD), read-out: EC50 after treatment for 48 h
[4] = SYBR green I, 96 h incubation, mean of three independent experiments (SD), read-out: EC50 after treatment for 96 h
[5] = Table S1, single experiment with duplicate samples, or mean of triplicate experiments (SD), read-out: EC50 96 hours

SMILES	EC50 (P. falciparum 3D7 [1]; [3])	EC50 (P. falciparum 3D7 [1]; [4])	EC5048/EC5096 ratio (P. falciparum 3D7 [1])	EC50 (P. falciparum 3D7 [1]; [5])	Selectivity PKG T618Q/PKG (PfPKG T618Q; Table S2)	Stage of action (before or after DNA synthesis) (P. falciparum 3D7 [2])	Stage of action (P. falciparum 3D7 [2])	ratio EC5048:EC5096 (P. falciparum 3D7 [1]; Table S1)	IC50 (CDPK1; Table 2)	3D7 PKG T618Q/3D7 EC50 ratio (3D7 PKG T618Q; Table 2)	Ratio 3D7 PKG T618Q/3D7 (3D7 PKG T618Q)	also measured
CN(C)C1CCN(c2ccc3ncc(-c4cnc(Nc5ncccc5F)nc4)n3n2)C1 (stereo not drawn) [Compound 35]	> 1000 µM	0.809 µM	>1,000	0.81 µM	10653	late schizont	Late schizont					IC50 (CDPK1; Table S2): 0.017 µM; IC50 (PfPKG; Table S2, read-out: Enzyme inhibition IC50, PKG): 0.05 µM; IC50 (PfPKG T618Q; Table S2, read-out: Enzyme inhibition IC50, PKG T618Q): 528 µM
NC1CCC(Nc2ccc3ncc(-c4cnc(Nc5ccccn5)c(F)c4)n3n2)CC1 (stereo not drawn) [Compound 20]			2.1			trophozoite	Trophozoite	2.1	0.008 µM	1.8	2	EC50 (P. falciparum 3D7 [1]; Plasmodium falciparum, 3D7, 48 h, read-out: EC50 48 hours): 0.3 µM; EC50 (P. falciparum 3D7 [1]; Plasmodium falciparum, 3D7, 48 h, read-out: EC50 after treatment for 48 h): 0.298 µM; EC50 (P. falciparum 3D7 [1]; Plasmodium falciparum, 3D7, 96 h, read-out: EC50 96 hours): 0.14 µM; EC50 (P. falciparum 3D7 [1]; Plasmodium falciparum, 3D7, 96 h, read-out: EC50 after treatment for 96 h): 0.142 µM; EC50 (P. falciparum 3D7 [1]; Plasmodium falciparum, 3D7, 96 h, read-out: Parasite inhibition EC50, 3D7): 0.21 µM; IC50 (PfPKG): 0.012 µM; IC50 (PfPKG T618Q): 15.3 µM; EC50 (3D7 PKG T618Q; Plasmodium falciparum, 3D7, 96 h): 0.386 µM
CC(C)(C)n1nc(Cc2cccc3ccccc23)c2c(N)ncnc21 [NM-PP1, 1-(1,1-dimethylethyl)-3-(1-naphthalenylmethyl)-1H-pyrazolo[3,4-d]pyrimidin-4-amine]												EC50 (3D7 CDPK1 T145T-HA): 11.6 µM; EC50 (3D7 CDPK1 T145G-HA): 10.3 µM
Fc1cccnc1Nc1ncc(-c2cnc3ccc(NC4CCC(N5CCNCC5)CC4)nn23)cn1 (stereo not drawn) [Compound 28]	0.168 µM	0.038 µM	4.4	0.04 µM	12100	late schizont (after)	Late schizont	4.4	0.012 µM	10.8	11	EC5048/EC5096 ratio (P. falciparum 3D7 [1]; listed as Compound 28): less than 5; EC50 (P. falciparum 3D7 [1]; Table 2, SYBR green I, 96 h, single experiment, or mean (SD) of duplicate assays, read-out: Parasite inhibition EC50, 3D7): 0.059 µM; EC50 (P. falciparum 3D7 [1]; Table S1, single experiment with duplicate samples, or mean of triplicate experiments (SD), read-out: EC50 48 hours): 0.17 µM; IC50 (PfPKG; read-out: Enzyme inhibition IC50, PKG): 0.003 µM; IC50 (PfPKG T618Q; Table 2, ATP at Km 90 μM, read-out: Enzyme inhibition IC50, PKG T618Q): 31.7 µM; EC50 (3D7 PKG T618Q; Table 2, SYBR green I, 96 h, single experiment, or mean (SD) of duplicate assays): 0.64 µM; Stage of action (P. falciparum 3D7 [2]; listed as Compound 28): arrest parasites in late schizogony
